Measured values reported in PubChem BioAssay (NCI).
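Following 48 hours of exposure in 96-well plates, responses at five concentrations were used to interpolate endpoints linearly. GI50: concentration for 50% inhibition of growth. TGI denotes the concentration required for complete inhibition of growth.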

Key:
Test in all cases: NCI tumour cell line growth inhibition, 48 h
HCC-2998 colon = system: HCC-2998 colon
MALME-3M melanoma = system: MALME-3M melanoma
OVCAR-4 ovarian = system: OVCAR-4 ovarian
SK-OV-3 ovarian = system: SK-OV-3 ovarian
IGROV1 ovarian = system: IGROV1 ovarian
SNB-75 CNS = system: SNB-75 CNS
SF-539 CNS = system: SF-539 CNS
EKVX NSCLC = system: EKVX NSCLC
ACHN renal = system: ACHN renal
CAKI-1 renal = system: CAKI-1 renal

SMILES	GI50 (HCC-2998 colon)	TGI (HCC-2998 colon)	GI50 (MALME-3M melanoma)	TGI (MALME-3M melanoma)	GI50 (OVCAR-4 ovarian)	TGI (OVCAR-4 ovarian)	GI50 (SK-OV-3 ovarian)	TGI (SK-OV-3 ovarian)	GI50 (IGROV1 ovarian)	TGI (IGROV1 ovarian)	GI50 (SNB-75 CNS)	TGI (SNB-75 CNS)	GI50 (SF-539 CNS)	TGI (SF-539 CNS)	GI50 (EKVX NSCLC)	TGI (EKVX NSCLC)	GI50 (ACHN renal)	TGI (ACHN renal)	GI50 (CAKI-1 renal)	TGI (CAKI-1 renal)
CN(C)CCCSc1ccccc1NC1=C(Cl)C(=O)C(Nc2ccccc2SCCCN(C)C)=C(Cl)C1=O	2.11 µM	5.49 µM	1.85 µM	3.6 µM	1.29 µM	2.56 µM	12.5 µM	25 µM	1.39 µM	3.44 µM	11.1 µM	23.2 µM	1.68 µM	3.1 µM	1.81 µM	3.38 µM	–	–	–	–
Cc1cc(N2CCCCC2)nc(NC2CCCC(Nc3ccnc4cc(Cl)ccc34)C2)n1 (centres undefined)	1.75 µM	3.4 µM	–	–	1.4 µM	3.29 µM	1.65 µM	3.17 µM	–	–	1.39 µM	3.18 µM	–	–	1.54 µM	3.54 µM	1.54 µM	2.98 µM	–	–
Cc1ccc2cccc(OC(=O)Nc3cccc(C(F)(F)F)c3)c2n1	5.29 µM	18.5 µM	3.03 µM	10 µM	2.09 µM	10.3 µM	4.37 µM	16.2 µM	4.29 µM	17.4 µM	2.39 µM	11.7 µM	5.42 µM	18.1 µM	–	–	3.04 µM	12.4 µM	3.25 µM	11.8 µM
CCn1c2ccccc2c(=O)c2c(OC)ccc(OC)c21	–	–	–	> 100 µM	–	> 100 µM	–	> 100 µM	–	> 100 µM	–	–	–	> 100 µM	–	> 100 µM	–	> 100 µM	–	> 100 µM
CC(=O)OCCOCNC(=S)N/N=C/c1cc([N+](=O)[O-])ccc1O	–	> 100 µM	–	> 100 µM	–	> 100 µM	–	> 100 µM	–	> 100 µM	–	> 100 µM	–	> 100 µM	–	> 100 µM	–	> 100 µM	–	–
Oc1ccc2c3c1OC1c4[nH]ncc4C[C@H]4[C@@H](C2)N(CC2CC2)CC[C@]314 (some centres undefined)	–	> 100 µM	–	> 100 µM	–	> 100 µM	–	> 100 µM	–	> 100 µM	–	> 100 µM	–	–	–	> 100 µM	–	> 100 µM	–	> 100 µM
COc1ccc(C(=NN=C(N)N)c2ccc(OC)cc2)cc1	3.53 µM	14.4 µM	2.85 µM	11.6 µM	3.46 µM	16.4 µM	2.78 µM	10.6 µM	2.97 µM	13.7 µM	1.84 µM	11.3 µM	–	–	4.68 µM	24.7 µM	3.49 µM	13.3 µM	5.75 µM	21 µM
Cn1cc(C2=C(c3cn(-c4ccccc4)c4ccccc34)C(=O)NC2=O)c2ccccc21	24.4 µM	> 25 µM	14.9 µM	> 25 µM	10.4 µM	> 25 µM	> 25 µM	> 25 µM	11.7 µM	> 25 µM	5.76 µM	> 25 µM	> 25 µM	> 25 µM	–	–	17.3 µM	> 25 µM	16.4 µM	> 25 µM
Cc1ccc(S(=O)(=O)N2CCN(C=S)CC2)cc1	–	> 100 µM	–	> 100 µM	–	–	–	> 100 µM	–	> 100 µM	–	> 100 µM	–	> 100 µM	–	> 100 µM	–	> 100 µM	–	–
CC1=NN(C(=O)Nc2ccc(Cl)cc2)C(=O)C2CCC(=O)N12 (centres undefined)	–	> 100 µM	–	–	–	> 100 µM	–	> 100 µM	–	> 100 µM	–	> 100 µM	–	> 100 µM	–	> 100 µM	–	> 100 µM	–	> 100 µM
Cc1ccc(/C=C(\NC(=O)c2ccccc2)c2nc3ccccc3[nH]2)cc1	–	> 100 µM	–	> 100 µM	–	> 100 µM	–	–	–	> 100 µM	–	–	–	> 100 µM	–	> 100 µM	–	> 100 µM	–	–
COc1cc(CNCCN2C(=O)c3ccc4c5c(ccc(c35)C2=O)C(=O)N(CCNCc2cc(OC)c(OC)c(OC)c2)C4=O)cc(OC)c1OC	–	–	–	–	0.122 µM	0.398 µM	0.575 µM	1.19 µM	0.296 µM	1.89 µM	0.232 µM	0.826 µM	0.4 µM	1.11 µM	–	–	0.487 µM	1.12 µM	–	–
CC(C)(C)C(=O)Nc1cccc2oc(-c3ccccc3)cc12	–	> 100 µM	–	–	–	> 100 µM	–	> 100 µM	–	> 100 µM	–	> 100 µM	–	> 100 µM	–	> 100 µM	–	> 100 µM	–	> 100 µM
CCCCNS(=O)(=O)c1n[nH]c(=O)[nH]c1=O	–	–	–	> 100 µM	–	> 100 µM	–	> 100 µM	–	> 100 µM	–	> 100 µM	–	> 100 µM	–	> 100 µM	–	> 100 µM	–	> 100 µM
O=c1cnnc(N/N=C/c2ccccc2O)[nH]1	3.02 µM	> 100 µM	0.426 µM	47.5 µM	0.264 µM	> 23.8 µM	3.6 µM	> 100 µM	3.2 µM	16.7 µM	8.03 µM	87.3 µM	3.2 µM	> 100 µM	–	–	1.19 µM	> 100 µM	3.01 µM	> 100 µM
O=C(C=P(c1ccccc1)(c1ccccc1)c1ccccc1)CCl	1.84 µM	3.7 µM	1.32 µM	3.08 µM	0.488 µM	2.2 µM	4.67 µM	16.1 µM	1.97 µM	5.75 µM	1.19 µM	7.57 µM	1.28 µM	2.98 µM	–	–	0.569 µM	1.94 µM	0.98 µM	2.81 µM
O=c1c2ccccc2c(/C=N\NC2=NCCN2)c2oc3ccccc3n12	12.9 µM	34.1 µM	–	–	23.7 µM	65.7 µM	19.5 µM	40.8 µM	–	–	19.4 µM	42 µM	18.1 µM	36.3 µM	16.5 µM	37.2 µM	14.2 µM	29.9 µM	27.2 µM	> 100 µM
